# Results taken from US20060069132A1, “Azolecarboxamide herbicides” (priority 2004, published 2006).
# Columns and labels:
# yellow nutsedge = assay: Test C pre-/postemergence herbicide test; assay type: in vivo, Cyperus esculentus; conditions: Cyperus, pre-emergence, read-out: Plant response rating, Nutsedge, Yellow
# Summary of the method: (§1)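 Greenhouse-grown plants were evaluated visually 12 to 14 days after treatment, with 100 meaning complete control and 0 no effect. Application was preemergence, or postemergence at 2 to 18 cm.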
# corn [1] = assay: Test B pre-/postemergence herbicide test; assay type: in vivo, Zea mays
# Summary of the method: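 Pre: seeds sown, then sprayed. Post: 1–4-leaf plants (2–18 cm) sprayed at the same time. Paddy: flooded, treated at 2-leaf stage. Formulation: non-phytotoxic solvent with surfactant. Greenhouse 13–15 days; visual 0–100 score relative to controls.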
# velvetleaf = assay: Test C pre-/postemergence herbicide test; assay type: in vivo, Abutilon theophrasti; conditions: Abutilon theophrasti, pre-emergence, read-out: Plant response rating, Velvetleaf
# Summary of the method: as §1
# Surinam grass = assay: Test C pre-/postemergence herbicide test; assay type: in vivo, Urochloa decumbens; conditions: Urochloa decumbens, pre-emergence, 312 h, read-out: Plant response rating, Surinam Grass
# Summary of the method: as §1
# pigweed = assay: Test C pre-/postemergence herbicide test; assay type: in vivo, Amaranthus retroflexus; conditions: Amaranthus retroflexus, pre-emergence, read-out: Plant response rating, Pigweed
# Summary of the method: as §1
# soybean = assay: Test C pre-/postemergence herbicide test; assay type: in vivo, Glycine max; conditions: Glycine max, pre-emergence, read-out: Plant response rating, Soybean
# Summary of the method: as §1
# wild oat = assay: Test B postemergence herbicide test; assay type: in vivo, Avena fatua; conditions: Avena fatua, post-emergence, 336 h, read-out: Oat, Wild plant response rating
# Summary of the method: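 Treated at 2-leaf (paddy) or 1–4-leaf, 2–18 cm (postemergence); greenhouse 13–15 d; visual score vs control, 0 none to 100 complete control; dash = not tested.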
# corn [2] = assay: Test C pre-/postemergence herbicide test; assay type: in vivo, Zea mays; conditions: Zea mays, pre-emergence, 312 h
# Summary of the method: as §1
# large crabgrass = assay: Test C pre-/postemergence herbicide test; assay type: in vivo, Digitaria sanguinalis; conditions: Digitaria sanguinalis, pre-emergence, 312 h, read-out: Plant response rating, Crabgrass, Large
# Summary of the method: as §1
# johnsongrass = assay: Test C pre-/postemergence herbicide test; assay type: in vivo, Sorghum halepense; conditions: Sorghum halepense, pre-emergence, read-out: Plant response rating, Johnsongrass
# Summary of the method: as §1
# [3] = 62 g ai/ha, preemergence, scale 0 to 100
# [4] = 125 g ai/ha, scale 0 (no effect) to 100 (complete control), visual, 12 to 14 days
# [5] = 500 g ai/ha, scale 0 to 100 (0 no effect, 100 complete control), visual, 12 to 14 days
compound,measurement,setting,value
"CCNC(=O)c1ccc(F)c(NC(=O)C2CN(C(C)(C)C)N=C2CC)c1 (centres unmarked) [Compound 336, 1-(1,1-dimethylethyl)-3-ethyl-N-[5-[(ethylamino)carbonyl]-2-fluorophenyl]-4,5-dihydro-1H-pyrazole-4-carboxamide]",pest or weed control at 62 g/ha,yellow nutsedge; [3],0%
same,pest or weed control at 125 g/ha,yellow nutsedge; [4],5%
same,pest or weed control at 250 g/ha,"yellow nutsedge; 250 g ai/ha, scale 0-100",20%
same,pest or weed control at 500 g/ha,yellow nutsedge; [5],60%
same,"Plant response rating (0 to 100 scale), Corn","corn [1]; 125 g ai/ha, 0 is no effect, 100 is complete control, preemergence",50
same,plant injury at 125 g/ha,"corn [1]; Zea mays, post-emergence, 125 g ai/ha, visual rating, scale 0 (no effect) to 100 (complete control), read-out: Corn plant response rating",10%
same,plant injury at 500 g/ha,"corn [1]; Zea mays, post-emergence, postemergence, 500 g ai/ha, scale 0 to 100, 0 is no effect, 100 is complete control, read-out: Corn plant response rating",20%
same,"Corn plant response rating (crop injury, 0 = no effect, 100 = complete kill) at 500 g/ha","corn [1]; Zea mays, pre-emergence, 500 g ai/ha, visual rating, 0 = no effect, 100 = complete control",100%
same,pest or weed control at 62 g/ha,velvetleaf; [3],5%
same,pest or weed control at 250 g/ha,"velvetleaf; 250 g ai/ha, scale 0-100",100%
same,pest or weed control at 500 g/ha,velvetleaf; [5],100%
same,pest or weed control at 62 g/ha,Surinam grass; [3],50%
same,pest or weed control at 250 g/ha,"Surinam grass; 250 g ai/ha, scale 0-100",100%
same,pest or weed control at 500 g/ha,Surinam grass; [5],100%
same,pest or weed control at 62 g/ha,pigweed; [3],100%
same,pest or weed control at 125 g/ha,pigweed; [4],100%
same,pest or weed control at 250 g/ha,"pigweed; 250 g ai/ha, scale 0-100",100%
same,pest or weed control at 500 g/ha,pigweed; [5],100%
same,plant injury at 62 g/ha,soybean; [3],0%
same,plant injury at 250 g/ha,"soybean; 250 g ai/ha, scale 0-100",50%
same,plant injury at 500 g/ha,soybean; [5],100%
same,pest or weed control at 125 g/ha,"wild oat; 125 g ai/ha, visual rating, scale 0 (no effect) to 100 (complete control)",10%
same,pest or weed control at 500 g/ha,"wild oat; postemergence, 500 g ai/ha, scale 0 to 100, 0 is no effect, 100 is complete control",20%
same,"Corn plant response rating (crop injury, 0 = no effect, 100 = complete kill) at 62 g/ha",corn [2]; [3],10%
same,"Corn plant response rating (crop injury, 0 = no effect, 100 = complete kill) at 125 g/ha",corn [2]; [4],35%
same,"Corn plant response rating (crop injury, 0 = no effect, 100 = complete kill) at 250 g/ha","corn [2]; 250 g ai/ha, scale 0-100",85%
same,"Corn plant response rating (crop injury, 0 = no effect, 100 = complete kill) at 500 g/ha",corn [2]; [5],85%
same,pest or weed control at 62 g/ha,large crabgrass; [3],100%
same,pest or weed control at 125 g/ha,large crabgrass; [4],100%
same,pest or weed control at 250 g/ha,"large crabgrass; 250 g ai/ha, scale 0-100",100%
same,pest or weed control at 500 g/ha,large crabgrass; [5],100%
same,pest or weed control at 62 g/ha,johnsongrass; [3],80%
same,pest or weed control at 125 g/ha,johnsongrass; [4],95%
same,pest or weed control at 250 g/ha,"johnsongrass; 250 g ai/ha, scale 0-100",100%
same,pest or weed control at 500 g/ha,johnsongrass; [5],100%
